# Biological target: T1, vitronectin receptor αvβ3 (Homo sapiens, UniProt P05106+P06756)
# T1 construct: expressed in transfected cells
# Test: Vn/293 cell test: inhibition of the binding of 293 cells to human vitronectin
# Format: cell-based
# Details: 293 cells cotransfected with αv and β3 subunits, binding to plates coated with human vitronectin, 90 min at 37° C.
# From the text: The inhibitory action of the compounds according to the invention against the vitronectin receptor […] can be determined, for example, as described below:
# Test for the measurement of the inhibition of the binding of 293 cells to human vitronectin (abbreviated in the test results to Vn/293 cell test)
# 1. Purification of Human Vitronectin
# Human vitronectin was isolated from human plasma and purified by affinity chromatography according to the method of Yatohyo et al., Cell Structure and Function, 1988, 23, 281-292.
# 293 cells, a human embryonic kidney cell line, which were cotransfected with DNA sequences for the αv and β3 subunits of the vitronectin receptor were selected according to the FACS method with a view to a high expression rate (>500,000 αvβ3 receptors/cell). The selected cells were cultured and sorted again by means of FACS to obtain a stable cell line (15 D) with expression rates of >1,000,000 copies of αvβ3 per cell.
# A Linbro 96-well tissue culture plate with a flat bottom was coated overnight at 4° C. with human vitronectin (0.01 mg/ml, 0.05 ml/well) in phosphate-buffered saline solution (PBS) and then blocked with 0.5% strength BSA. […] The reaction was stopped with a glycine (50 mmol)/EDTA (5 mmol) buffer (pH 10.4) and the absorption of each well was measured at 405-650 nm. The data were evaluated using standard methods.
# T1 sequence (P06756 31-889 limits assumed): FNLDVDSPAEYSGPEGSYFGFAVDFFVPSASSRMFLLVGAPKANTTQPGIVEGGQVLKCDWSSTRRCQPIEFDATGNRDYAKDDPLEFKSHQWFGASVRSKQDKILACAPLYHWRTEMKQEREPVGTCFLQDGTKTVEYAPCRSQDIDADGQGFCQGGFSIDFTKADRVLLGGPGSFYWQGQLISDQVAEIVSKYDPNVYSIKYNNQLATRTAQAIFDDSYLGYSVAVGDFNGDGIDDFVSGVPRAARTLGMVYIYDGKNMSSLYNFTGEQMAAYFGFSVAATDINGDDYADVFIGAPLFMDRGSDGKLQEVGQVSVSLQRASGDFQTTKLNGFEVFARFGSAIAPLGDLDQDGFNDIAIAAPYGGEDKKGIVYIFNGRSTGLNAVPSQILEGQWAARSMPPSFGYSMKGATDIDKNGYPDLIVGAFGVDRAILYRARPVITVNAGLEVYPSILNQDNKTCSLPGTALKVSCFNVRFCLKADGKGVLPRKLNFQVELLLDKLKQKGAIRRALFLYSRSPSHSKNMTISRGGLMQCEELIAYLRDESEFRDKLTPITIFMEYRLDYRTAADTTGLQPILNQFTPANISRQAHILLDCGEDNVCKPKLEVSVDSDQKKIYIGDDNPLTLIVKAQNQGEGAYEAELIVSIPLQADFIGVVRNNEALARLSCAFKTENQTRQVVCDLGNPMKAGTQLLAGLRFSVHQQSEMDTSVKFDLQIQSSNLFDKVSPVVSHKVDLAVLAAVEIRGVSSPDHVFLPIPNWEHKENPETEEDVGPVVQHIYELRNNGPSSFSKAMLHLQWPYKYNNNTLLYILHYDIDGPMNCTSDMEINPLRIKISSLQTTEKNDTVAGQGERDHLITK
# T1 sequence (P06756 891-1048 limits assumed): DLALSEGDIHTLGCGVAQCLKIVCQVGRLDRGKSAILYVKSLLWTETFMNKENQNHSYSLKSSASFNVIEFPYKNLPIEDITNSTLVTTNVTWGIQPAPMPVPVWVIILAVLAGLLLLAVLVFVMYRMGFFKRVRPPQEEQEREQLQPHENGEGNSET
# T1 sequence (P05106 27-788): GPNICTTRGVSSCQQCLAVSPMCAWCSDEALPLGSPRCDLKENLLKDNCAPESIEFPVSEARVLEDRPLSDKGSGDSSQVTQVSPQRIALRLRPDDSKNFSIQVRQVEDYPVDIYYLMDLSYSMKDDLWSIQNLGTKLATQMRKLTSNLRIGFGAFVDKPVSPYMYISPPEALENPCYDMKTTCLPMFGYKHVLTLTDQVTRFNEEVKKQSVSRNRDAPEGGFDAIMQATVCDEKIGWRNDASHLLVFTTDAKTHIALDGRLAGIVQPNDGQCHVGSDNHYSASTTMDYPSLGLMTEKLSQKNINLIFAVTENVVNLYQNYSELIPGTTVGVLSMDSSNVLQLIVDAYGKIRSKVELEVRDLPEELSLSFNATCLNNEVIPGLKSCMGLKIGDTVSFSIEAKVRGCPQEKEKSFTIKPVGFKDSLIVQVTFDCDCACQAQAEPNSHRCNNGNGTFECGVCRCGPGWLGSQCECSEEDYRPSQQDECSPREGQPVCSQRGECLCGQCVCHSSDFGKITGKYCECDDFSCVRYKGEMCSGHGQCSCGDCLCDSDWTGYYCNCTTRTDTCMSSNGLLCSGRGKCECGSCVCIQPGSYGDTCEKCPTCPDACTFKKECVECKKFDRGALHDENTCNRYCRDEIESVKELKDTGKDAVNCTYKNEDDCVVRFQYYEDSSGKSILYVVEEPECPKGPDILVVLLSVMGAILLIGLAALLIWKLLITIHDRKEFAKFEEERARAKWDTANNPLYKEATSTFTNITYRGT
row,Compound,IC50
1,"N=C(N)NC(=O)CCCOc1ccc(C[C@H](NC(=O)OCC23CC4CC(CC(C4)C2)C3)C(=O)O)cc1 [Example 1, (2S)-2-(1-Adamantylmethyloxycarbonylamino)-3-(4-(3-guanidinocarbonylpropyloxy)phenyl)propionic acid]",32 nM
2,"O=C(CCc1ccc(C(=O)NC[C@H](NC(=O)OCC23CC4CC(CC(C4)C2)C3)C(=O)O)cc1)NC1=NCCCN1 [Example 3, (2S)-2-(1-Adamantylmethyloxycarbonylamino)-3-(4-(2-(1,4,5,6-tetra-hydropyrimidin-2-ylcarbamoyl)ethyl)benzoylamino)propionic acid]",32 nM

# — patent US20080021055A1, “Novel cycloalkyl derivatives as inhibitors of bone resorption and vitronectin receptor antagonists” (Aventis Pharma S.A., priority 1996, published 2008)
